“And” between values parts separate entries of the source, which are not always exact repeats. Equal values may be shown once.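 A five-concentration, 48-hour dose response in 96-well plates underlies each endpoint, interpolated linearly between surrounding concentrations. TGI: concentration producing complete growth inhibition.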
Legend:
Assay in all cases: DTP human tumour cell line panel, 48 h
OVCAR-8 ovarian = system: OVCAR-8 ovarian
HCT-116 colon = system: HCT-116 colon
RXF 393 renal = system: RXF 393 renal
OVCAR-5 ovarian = system: OVCAR-5 ovarian
HT29 colon = system: HT29 colon
M14 melanoma = system: M14 melanoma
OVCAR-3 ovarian = system: OVCAR-3 ovarian
CCRF-CEM leukemia = system: CCRF-CEM leukemia
PC-3 prostate = system: PC-3 prostate
NCI/ADR-RES ovarian = system: NCI/ADR-RES ovarian

Row | Structure (SMILES) | TGI (OVCAR-8 ovarian) | TGI (HCT-116 colon) | TGI (RXF 393 renal) | TGI (OVCAR-5 ovarian) | TGI (HT29 colon) | TGI (M14 melanoma) | TGI (OVCAR-3 ovarian) | TGI (CCRF-CEM leukemia) | TGI (PC-3 prostate) | TGI (NCI/ADR-RES ovarian)
1 | CC(C)(CN1CCCCC1)C(=O)CC(SCCS(=O)(=O)O)c1ccc(Br)cc1 (centres undefined) | 5.96 µM | 3.04 µM | 2.71 µM | 9.34 µM | 3.72 µM | 3.54 µM | – | – | – | –
2 | NC1=NS(=O)(=O)N=C(N)C1=Cc1ccc([N+](=O)[O-])o1 | 33.3 µM | 28.7 µM | 32.8 µM | 32.9 µM | 34 µM | 26.9 µM | 32.4 µM | 92.8 µM | – | –
3 | O=C1/C(=C/c2cccc(Oc3ccccc3)c2)N=C(c2ccccc2)N1c1nc2ccc(Sc3ccccc3)cc2[nH]1 | > 100 µM | > 100 µM | > 100 µM | > 100 µM | 63.2 µM | 74.8 µM | 47.7 µM | > 100 µM | > 100 µM | 50.4 µM
4 | O=C1c2cc([N+](=O)[O-])ccc2NC2C(O)c3ccccc3N12 (centres undefined) | 65 µM | > 100 µM | 34.5 µM | > 100 µM | > 100 µM | > 100 µM | > 100 µM | – | > 100 µM | 63.1 µM
5 | COc1cc(C(=O)Nc2nnc(S(N)(=O)=O)s2)cc(OC)c1OC | > 100 µM | > 100 µM | > 100 µM | > 100 µM | – | > 100 µM | > 100 µM | – | – | > 100 µM
6 | O=c1[nH]c(=O)n(C2CC(O)C(CO)O2)cc1C#Cc1ccc(C(F)(F)F)cc1 (centres undefined) | > 100 µM | > 100 µM | > 100 µM | > 100 µM | > 100 µM | > 100 µM | > 100 µM | > 100 µM | – | –
7 | O=c1oc2ccccc2cc1-c1nc2ccc([N+](=O)[O-])cc2o1 | > 100 µM | > 100 µM | > 100 µM | – | > 100 µM | > 100 µM | > 100 µM | > 100 µM | > 100 µM | > 100 µM
8 | O=C(Cc1nc2ccc(C(=O)c3ccccc3)cc2[nH]c1=O)C(=O)Nc1ccccc1[N+](=O)[O-] | > 100 µM | > 100 µM | > 100 µM | > 100 µM | > 100 µM | > 100 µM | > 100 µM | > 100 µM | > 100 µM | > 100 µM
9 | C#CC(C)(C)Oc1cc(OC)c2c(=O)c3ccccc3n(C)c2c1 | 68 µM | > 100 µM | 84.8 µM | 98.3 µM | > 100 µM | – | – | 27.5 µM | 40.8 µM | 83.4 µM
10 | CC(C)=CC(=O)O[C@@H]1CC(C)(C)CC2C3=CCC4[C@]56CC[C@](O)(OC5)C(C)(C)C6CC[C@@]4(C)C3(C)CC[C@]21C(=O)O (some centres undefined) | > 100 µM | > 100 µM | > 100 µM | > 100 µM | > 100 µM | > 100 µM | > 100 µM | > 100 µM | > 100 µM | > 100 µM
11 | Cn1c(N)c(/C=N/NC(=O)CC#N)c(=O)n(C)c1=O | > 100 µM | > 100 µM | > 100 µM | > 100 µM | > 100 µM | > 100 µM | > 100 µM | > 100 µM | > 100 µM | > 100 µM
12 | O=C1CSC2(CC(/C=C/C=C/c3ccccc3)=NN2c2cccc(S(=O)(=O)O)c2)N1c1nc2ccccc2s1 (centres undefined) | > 100 µM | > 100 µM | > 100 µM | > 100 µM | > 100 µM | > 100 µM | – | 58.4 µM | > 100 µM | > 100 µM
13 | O=C(Cn1c2ccc(Br)cc2c2nc3ccccc3nc21)NC1CCCCC1 | > 100 µM | > 100 µM | > 100 µM | > 100 µM | > 100 µM | > 100 µM | > 100 µM | – | > 100 µM | > 100 µM
14 | O=C1CCC2(CCC(=O)NC2=O)C(=O)N1 | > 100 µM | > 100 µM | > 100 µM | – | > 100 µM | > 100 µM | > 100 µM | > 100 µM | – | –
15 | CC1(C)CC(=O)C(/C=N/c2nc(-c3ccc(Br)cc3)cs2)=C(O)C1 | > 100 µM | > 100 µM | – | > 100 µM | > 100 µM | 48.4 µM | 62.1 µM | – | > 100 µM | > 100 µM
16 | C=CCc1c(O)c2ccccc2[nH]c1=O | > 100 µM | > 100 µM | – | > 100 µM | > 100 µM | – | > 100 µM | > 100 µM | > 100 µM | > 100 µM
17 | O=C1CCC2(CC1)Cc1ccccc1C2O (centres undefined) | > 100 µM | > 100 µM | – | > 100 µM | > 100 µM | > 100 µM | – | > 100 µM | > 100 µM | > 100 µM
18 | Cc1cnc(Cl)nc1C(C#N)c1nc2ccccc2n1C (centres undefined) | > 100 µM | 51.2 µM | > 100 µM | > 100 µM | > 100 µM | > 100 µM | > 100 µM | – | – | > 100 µM
19 | N#Cc1c(N)c(-c2ccc(Cl)cc2)c(F)c2ccccc12 | > 100 µM | > 100 µM | 58.3 µM | > 100 µM | > 100 µM | > 100 µM | > 100 µM | – | > 100 µM | > 100 µM
20 | CCOC(=O)C1C/C(C)=C(/C)SCCCS1 (centres undefined) | > 100 µM | > 100 µM | > 100 µM | > 100 µM | > 100 µM | > 100 µM | > 100 µM | – | > 100 µM | > 100 µM
21 | c1ccc(C2=NN3CN(N2)c2ccccc2OCCCOc2ccccc23)cc1 | > 100 µM | > 100 µM | > 100 µM | > 100 µM | > 100 µM | > 100 µM | > 100 µM | > 100 µM | – | –
22 | CC(=O)Oc1ccc2cc(Oc3ccc(Cl)cc3)c(=O)oc2c1 | 54 µM | > 100 µM | > 100 µM | > 100 µM | > 100 µM | > 100 µM | 57.8 µM | – | 78.7 µM | –
23 | Cc1nc2c(n1Cc1ccc(Cl)cc1)C(=O)c1ccccc1C2=O | > 75 µM | > 75 µM | > 75 µM | – | > 75 µM | > 75 µM | > 75 µM | > 75 µM | – | –
24 | Brc1ccc(N2C[N+](c3ccc(Br)cc3)=NC(c3ccccc3)=N2)cc1 | 41.9 µM and > 100 µM | 32.9 µM and > 100 µM | 37.7 µM and > 100 µM | 30.2 µM and > 100 µM | 27.8 µM and > 100 µM | 26.2 µM and > 100 µM | – | – | – | –
